The results in this text go back to patent US20250163072A1, “MACROCYCLIC COMPOUNDS FOR THE TREATMENT OF CANCER” (Hoffmann-La Roche Inc., priority 2021, published 2025).

Series [1] has as its target KRAS G12D binding to BRAF (Homo sapiens (Human), UniProt P01116+P62937, G12D). Briefly: KRAS-BRAF with CYPA (50 nM) interaction assay (TR-FRET), G12D. The note with it: GMPPNP loaded 6His-KRAS, GST-BRAF RBD. How it is done:
(§1) In this example, TR-FRET was also used to measure the compound or compound-CYPA dependent disruption of the KRAS G12C-BRAF complex. This protocol was also used to measure disruption of KRAS G12D or KRAS G12V binding to BRAF by a compound of the invention, respectively. In assay buffer containing 25 mM HEPES PH=7.4 (4-(2-hydroxyethyl)-1-piperazineethanesulfonic acid, Thermo, 15630080), 0.002% Tween20, 0.1% BSA, 100 mM NaCl, 5 mM MgCl2, 10 μM GMPPNP (Guanosine 5'-[β,γ-imido]triphosphate trisodium salt hydrate, Sigma, G0635), tagless CYPA, GMPPNP loaded 6His-KRAS proteins, and GST-BRAF^RBD were mixed in a well of a 384-well assay plate at final concentrations of 50 nM, 6.25 nM and 1 nM, respectively. Compound was present in plate wells as a 16-point 3-fold dilution series starting at a final concentration of 10 μM and incubated for 3 hours. A mixture of MAb Anti-6His-XL665 (Cisbio, 61HISXLB) and Mab anti-GST-TB cryptate (Cisbio, 61GSTTLB) was then added at a final concentration of 6.67 nM and 0.21 nM, respectively, and the plate was incubated for an additional 1.5 hours. TR-FRET signal was read on a […] microplate reader (Ex320 nm, Em 665/615 nm). Compounds that facilitate disruption of the KRAS-BRAF complex were identified as those eliciting a decrease in the TR-FRET ratio relative to DMSO control wells.
A general note: Time-resolved FRET reads energy transfer from a long-lived donor to a nearby acceptor.

Series [2] has as its target KRAS G12V binding to BRAF (Homo sapiens (Human), UniProt P01116+P62937, G12V). The series is described as follows: KRAS-BRAF with CYPA (50 nM) interaction assay (TR-FRET), G12V. The note with it: GMPPNP loaded 6His-KRAS, GST-BRAF RBD. How it is done: as §1
A further series concerns NCI-H358 cells. The series is described as follows: Cell viability assay, NCI-H358. The format is cell-based, human. The conditions noted are these: Homo sapiens, NCI-H358, 72 hours, Cell Counting Kit-8, read-out: G12C IC50. How it is done:
(§2) The purpose of this cellular assay was to determine the effects of test compounds on the proliferation of human cancer cell lines NCI-H358 (ATCC-CRL5807) cells, AGS (ATCC-CRL-1739) cells, SW620 (ATCC-CCL-227) over a 3-day treatment period by quantifying the amount of NADPH present at endpoint using Cell Counting Kit-8. Cells were seeded at 5,000 cells/well (NCI-H358), 2,000 cells/well (AGS) 2,000 cells/well (SW620) in 96-well assay plates (Corning-3699) and incubated overnight. On the day of the assay, diluted compounds were then added in a final concentration of 0.5% DMSO. After 72 hours incubation, a tenth of the volume of cell counting kit 8(Dnjindo-CK04) was added into each well. Read the signal (OD450 minus OD650) using EnVision after 2 hours incubation. IC50 was determined by fitting a 4-parameter sigmoidal concentration response model.
(Tetrazolium assays rely on reduction of a dye to a coloured formazan, in cell work by metabolically active cells.)

For another series, the target named is KRAS G12C-BRAF complex (Homo sapiens (Human), UniProt P01116+P62937, G12C). Briefly: KRAS-BRAF with CYPA (50 nM) interaction assay (TR-FRET), G12C. Type of series: binding. The conditions noted are these: GMPPNP loaded 6His-KRAS, GST-BRAF RBD. As for the experimental part: as §1
Sequence of KRAS G12C-BRAF complex (P01116-2 other isoform, or with tags, fused parts or gaps G12C): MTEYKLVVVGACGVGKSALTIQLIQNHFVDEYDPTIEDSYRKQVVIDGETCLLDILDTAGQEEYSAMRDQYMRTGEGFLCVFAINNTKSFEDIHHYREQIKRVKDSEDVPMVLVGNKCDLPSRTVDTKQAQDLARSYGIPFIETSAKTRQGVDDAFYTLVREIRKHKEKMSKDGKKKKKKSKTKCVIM
Sequence of KRAS G12C-BRAF complex (P62937 whole entry): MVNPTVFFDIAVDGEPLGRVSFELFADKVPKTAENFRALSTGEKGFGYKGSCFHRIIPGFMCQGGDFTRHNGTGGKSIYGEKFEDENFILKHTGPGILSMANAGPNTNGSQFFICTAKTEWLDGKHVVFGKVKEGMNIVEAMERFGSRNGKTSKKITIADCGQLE
Series [3] relates to KRAS G12C in NCI-H358 cells. Briefly: pERK inhibition assay, NCI-H358. The format is cell-based, human. The conditions noted are these: Homo sapiens, 4 hours incubation. How it is done:
(§3) This assay is to measure the ability of test compounds in inhibiting the phosphorylation of ERK, the downstream signaling of KRAS G12C in NCI-H358 cells, KRAS G12D in AGS cells, and KRAS G12V in SW620. NCI-H358 (ATCC-CRL5807) cells, AGS (ATCC-CRL-1739) cells, SW620 (ATCC-CCL-227) cells were all grown and maintained using RPMI-1640 medium (Thermo Fisher Scientific) with 10% fetal bovine serum and 1% penicillin/streptomycin. On the day prior to compound addition, cells were plated in tissue culture-treated 96 well plates (Corning-3699) at a density of 30,000 cell/well, 20,000 cell/well, 30,000 cell/well for NCI-H358, AGS and SW620 respectively, and allowed for attachment overnight. Diluted compounds were then added in a final concentration of 0.5% DMSO. After 4 hours of incubation, the medium was removed, 100 μL of 4% formaldehyde was added, and the assay plates were incubated at room temperature for 20 minutes. The plates were then washed once with phosphate buffered saline (PBS), and permeabilized with 100 μL of chilled methanol for 10 minutes. Non-specific antibody binding to the plates was blocked using 50 μL 1×BSA blocking buffer (Thermo-37520, 10-fold dilution by Phosphate-Buffered Saline Tween (PBST) for at least 1 hour at room temperature. The amount of phosphor-ERK was determined using an antibody specific for phosphorylated form of ERK. Primary antibody (pERK, CST-4370, Cell Signaling Technology) was diluted 1:300 in blocking buffer, with 50 μL aliquoted to each well, and incubated overnight at 4° C. Cells were washed five times for 5 minutes with PBST. Secondary antibody (HRP-linked anti-rabbit IgG, CST-7074, Cell Signaling Technology) was diluted 1:1000 in blocking buffer, and 50 μL was added to each well and incubated 1-2 hours at room temperature. Cells were washed 5 times for 5 minutes with PBST, 100 μL TMB ELISA substrate (abcam-ab171523) were added and gently shake for 20 minutes. 50 μL stop solution (abcam-ab171529) were added, and then read the signal (OD450) by EnVision. IC50 was determined by fitting a 4-parameter sigmoidal concentration response model.

The next series concerns KRAS G12V in SW620. The series is described as follows: pERK inhibition assay, SW620. Type of series: cell-based, human. The conditions noted are these: Homo sapiens, SW-620, SW620 cells, 4 hours incubation. How it is done:
as §3

The test system of another series is SW620 cells. The series is described as follows: Cell viability assay, SW620. Type of series: cell-based, human. The conditions noted are these: Homo sapiens, SW-620, SW620, 72 hours, Cell Counting Kit-8, read-out: G12V IC50. How it is done: as §2
The next series deals with KRAS G12D in AGS cells. The series is described as follows: pERK inhibition assay, AGS. The conditions noted are these: Homo sapiens, 4 hours incubation. Type of series: cell-based, human. How it is done: as §3
Another series relates to AGS cells. Briefly: Cell viability assay, AGS. The format is cell-based, human. The note with it: Homo sapiens, 72 hours, Cell Counting Kit-8, read-out: G12D IC50. As for the experimental part: as §2
The nature of series [4]: Human hepatocytes stability assay. Type of series: in vitro ADME. The note with it: for CL_hep (Human): 1 μM compound, human hepatocytes 1×10^6 cells/mL; for Clearance Category: human hepatocytes. As for the experimental part:
The hepatocyte stability assay measures the rate of disappearance of a compound from incubations with cryopreserved suspension hepatocytes from human. Positive controls, including Midazolam, Raloxifene and Dextromethorphan, are included in every experiment. Incubations consist of 1 μM tested compound and suspension of human hepatocytes (1×10^6 cells/mL) in supplemented Williams' E Medium with […] and 0.5% Penicillin-streptomycin. The hepatocyte suspension was incubated with intermittent shaking 900 rpm at 37° C., in a 5% CO2 incubator. The reaction was stopped by adding methanol containing internal standard (2 μM Tolbutamide) at 2, 10, 20, 40, 60 and 120 minutes after compound addition, depletion of the parent compound was monitored by LC-MS/MS analysis.

The nature of series [5]: GSH reaction rates (inherent GSH reactivity). The format is in vitro ADME. How it is done: Therefore Strategy to minimize the GSH metabolism is very critical. Short T1/2 in inherent GSH reaction indicated high GSH reaction rate. Thus T1/2 in inherent GSH reaction assay was determined for the screening of candidates. Reference compounds and compounds of this invention potentially could form conjugation with GSH either through halogenated moieties substitution reaction or direct Michael addition reaction. This test was therefore performed to check GSH reactivity of listed compounds. For inherent GSH reactivity determination, compounds at 1 μM were incubated at 37° C. with and without 5 mM GSH for 0, 0.5, 1, 2, 4 and 6 h in 100 mM potassium phosphate buffer at pH 7.4. At the end of the designated time points, samples were quenched with acetonitrile containing 10 mM N-ethylmaleimide and an internal standard. Quenched samples were centrifuged, and supernatants were analyzed by LC-MS/MS for compound quantification.

Bounds are passed on as bounds.

A word on the IC50: it is the concentration at which inhibition is half-maximal.

Sequence of KRAS G12D binding to BRAF (P01116-2 other isoform, or with tags, fused parts or gaps G12D): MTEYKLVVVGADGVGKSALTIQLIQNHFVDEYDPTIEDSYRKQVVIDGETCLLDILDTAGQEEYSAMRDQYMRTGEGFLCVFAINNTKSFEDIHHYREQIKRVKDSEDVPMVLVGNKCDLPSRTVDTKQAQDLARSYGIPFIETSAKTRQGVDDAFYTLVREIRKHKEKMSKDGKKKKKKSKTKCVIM
Sequence of KRAS G12D binding to BRAF (P62937 whole entry): as the sequence (P62937 whole entry) above
Sequence of KRAS G12V binding to BRAF (P01116-2 other isoform, or with tags, fused parts or gaps G12V): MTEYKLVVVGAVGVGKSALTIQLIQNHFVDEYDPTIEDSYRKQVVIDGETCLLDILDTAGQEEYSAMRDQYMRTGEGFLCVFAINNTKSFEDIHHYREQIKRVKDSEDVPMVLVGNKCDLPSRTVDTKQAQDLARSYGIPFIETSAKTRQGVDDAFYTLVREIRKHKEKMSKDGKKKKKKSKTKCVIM
Sequence of KRAS G12V binding to BRAF (P62937 whole entry): as the sequence (P62937 whole entry) above

Regarding `CCn1c(-c2cccnc2[C@H](C)OC)c2c3cc(ccc31)-c1cc(O)cc(c1)C[C@H](NC(=O)[C@H](C(C)C)N(C)C(=O)[C@H]1CCN(C(=O)/C=C/n3cncn3)C1)C(=O)N1CCC[C@H](N1)C(=O)OCC(C)(C)C2` (atropisomer, axis not shown; (M)) [Example 9, (3S)-N-[(1S)-1-[[(8S,14S)-22-ethyl-4-hydroxy-(21M)-21-[2-[(1S)-1-methoxyethyl]-3-pyridyl]-18,18-dimethyl-9,15-dioxo-16-oxa-10,22,28-triazapentacyclo[18.5.2.12,6.110,14.023,27]nonacosa-1(26),2,4,6(29),20,23(27),24-heptaen-8-yl]carbamoyl]-2-methyl-propyl]-N-methyl-1-[(E)-3-(1,2,4-triazol-1-yl)prop-2-enoyl]pyrrolidine-3-carboxamide], the IC50 stood at 1930 nM in [1]; 103 nM in series [2]; 29 nM in the series on NCI-H358 cells; 38 nM against KRAS G12C-BRAF complex; 229 nM in series [3]; 742 nM with KRAS G12V in SW620. For the same molecule, the IC50 in the series on SW620 cells is 853 nM.

For `CO[C@@H](C)c1ncc(N2CCN(C)CC2)cc1-c1c2c3cc(ccc3n1CC(F)(F)F)-c1csc(n1)C[C@H](NC(=O)[C@H](C(C)C)N(C)C(=O)C1(F)CCN(C(=O)[C@H](F)Cl)CC1)C(=O)N1CCC[C@H](N1)C(=O)OCC(C)(C)C2` (atropisomer, axis not shown; (M)) [Example 20, 1-[(2R)-2-chloro-2-fluoro-acetyl]-4-fluoro-N-[(1S)-1-[[(7S,13S)-(20M)-20-[2-[(1S)-1-methoxyethyl]-5-(4-methylpiperazin-1-yl)-3-pyridyl]-17,17-dimethyl-8,14-dioxo-21-(2,2,2-trifluoroethyl)-15-oxa-4-thia-9,21,27,28-tetrazapentacyclo[17.5.2.12,5.19,13.022,26]octacosa-1(25),2,5(28),19,22(26),23-hexaen-7-yl]carbamoyl]-2-methyl-propyl]-N-methyl-piperidine-4-carboxamide], the IC50 in series [1] turned out to be 415 nM; in the series with KRAS G12D in AGS cells, 11 nM; in the series on AGS cells it was 0.018 µM; in [2] it was 1170 nM; in the series with NCI-H358 cells, 0.2 nM; on KRAS G12C-BRAF complex it was 11 nM. Moreover, the IC50 in series [3] is 1 nM; with KRAS G12V in SW620, 3 nM; with SW620 cells, 5 nM.

On to `CO[C@@H](C)c1ncc(N2CCN(C)CC2)cc1-c1c2c3cc(ccc3n1CC(F)(F)F)-c1csc(n1)C[C@H](NC(=O)[C@H](C(C)C)N1CC[C@]3(CCN(C(=O)[C@H](F)Cl)C3)C1=O)C(=O)N1CCC[C@H](N1)C(=O)OCC(C)(C)C2` [Example 23, (2S)-2-[(5S)-7-[(2R)-2-chloro-2-fluoro-acetyl]-1-oxo-2,7-diazaspiro[4.4]nonan-2-yl]-N-[(7S,13S)-(20M)-20-[2-[(1S)-1-methoxyethyl]-5-(4-methylpiperazin-1-yl)-3-pyridyl]-17,17-dimethyl-8,14-dioxo-21-(2,2,2-trifluoroethyl)-15-oxa-4-thia-9,21,27,28-tetrazapentacyclo[17.5.2.12,5.19,13.022,26]octacosa-1(25),2,5(28),19,22(26),23-hexaen-7-yl]-3-methyl-butanamide], for which the “CL_hep (Human)” value in series [4] is 7.9 mL/min/kg. The “Clearance Category” value in series [4] is “medium (16.24<CL_hep (mL/min/kg)>6.96 is medium clearance)”. The “Remaining at 6 hr in GSH (%)” value in [5] (1 μM compound, 5 mM GSH, 37° C., pH 7.4, 6 hr) amounted to 95%. The “T1/2(hour) in GSH” value in [5] (1 μM compound, 5 mM GSH, 37° C., potassium phosphate buffer pH 7.4) is “stable (If % depletion after 6 hour incubation is less than 20%, compounds were reported as stable)”. In addition, the IC50 in the series with KRAS G12D in AGS cells was 18 nM; in the series with AGS cells, 3.41 µM; in the series on NCI-H358 cells, < 0.6 nM; in series [3], 2 nM; in the series with KRAS G12V in SW620, 8 nM; in the series with SW620 cells, 15 nM.

As for `CCn1c(-c2cccnc2COC)c2c3cc(ccc31)-c1cc(O)cc(c1)C[C@H](NC(=O)[C@H](C(C)C)N(C)C(=O)C1CN(C(=O)[C@H](F)Cl)C1)C(=O)N1CCC[C@H](N1)C(=O)OCC(C)(C)C2` [RM461-A], the “CL_hep (Human)” value in series [4] was 5.5 mL/min/kg. For the same molecule, the “Clearance Category” value in [4] is listed as “low (CL_hep (mL/min/kg)<6.96 is low clearance)”. Besides, the “Remaining at 6 hr in GSH (%)” value in series [5] (6 h, 1 μM, pH 7.4) is given as 100%. In addition, the IC50 is > 10000 nM with KRAS G12D in AGS cells; 7.92 µM in the series on AGS cells; 45 nM in the series with NCI-H358 cells; 49 nM in series [3]; 7020 nM in the series on KRAS G12V in SW620; 6880 nM in the series on SW620 cells.
